Source: patent US20070004805A1, “Process for preparation of liquid dosage form containing sodium 4-phenylbutyrate” (Navinta LLC, priority 2005, published 2007)

Legend:
[1] = solubility / achievable concentration of sodium 4-phenylbutyrate in water; format: physicochemical
Method: In another embodiment, this invention provides a process of preparing a supersaturated solution of sodium 4-phenylbutyrate in water by adding sufficient water to a known quantity of sodium 4-phenylbutyrate at an elevated temperature of about 30° to about 80° C. to produce a concentration of about 600 mg/mL.
As described in more detail below, this invention describes a process of preparing a highly concentrated solution of sodium 4-phenylbutyrate, having a concentration 500 mg/mL in water by dissolving 5 g of sodium 4-phenylbutyrate in about 3.5 mL water to yield a solution volume of about 10 mL. The temperature can be room temperature (25° C.) or an elevated temperature, preferably in the range of up to about 80° C. We found it is more difficult to make this solution at room temperature, but the solution can be made at a higher temperature and then cooled to room temperature without precipitating resulting. […] Therefore, due to likely micelle formation of sodium 4-phenylbutyrate (which we term the self-associated polymeric form), the high concentration of about 500 mg/mL can be achieved in solution. […] This novel invention thus provides a dosage form better able to help the patients presently administered with a high volume dosage of sodium 4-phenylbutyrate. […]

[2] = cold storage of the highly concentrated aqueous solution (freezing / precipitation); format: physicochemical
Method: As described in more detail below, this invention describes a process of preparing a highly concentrated solution of sodium 4-phenylbutyrate, having a concentration 500 mg/mL in water by dissolving 5 g of sodium 4-phenylbutyrate in about 3.5 mL water to yield a solution volume of about 10 mL. The temperature can be room temperature (25° C.) or an elevated temperature, preferably in the range of up to about 80° C. We found it is more difficult to make this solution at room temperature, but the solution can be made at a higher temperature and then cooled to room temperature without precipitating resulting. […] Therefore, due to likely micelle formation of sodium 4-phenylbutyrate (which we term the self-associated polymeric form), the high concentration of about 500 mg/mL can be achieved in solution. […] This novel invention thus provides a dosage form better able to help the patients presently administered with a high volume dosage of sodium 4-phenylbutyrate. This invention is not intended to be limited by this discussion of micellar phases, or the presence or absence of other high concentration phases (such as sponge or L3, worm-like micelles, sheets and other laminar phases) that may be formed depending on the particular processing conditions and/or materials used. In the follow description the term “solution” is used without regard to whether a micellar phase is present.
About 160 g of sodium 4-phenylbutyrate was transferred to a 250 mL volumetric flask to which was then added about 90 mL of water and agitated with heating at a temperature 70° C. to dissolve. The mixture was cooled to 25° C. and 0.5 g of sodium benzoate was added and mixed well. This solution was compounded to 250 mL with water.

Compound: O=C([O-])CCCc1ccccc1.[Na+] [sodium 4-phenylbutyrate]
- high concentration achieved in solution ([1]; in water, made at room temperature (25° C.) or up to about 80° C., then cooled without precipitation): about 500 mg/mL
- maximum drug concentration achieved in the formulation ([1]; supersaturated solution in aqueous medium): about 700 mg/mL
- freezing of the solution ([2]; 600 mg/mL solution at 0° C.): does not freeze
- freezing or precipitation upon storage ([2]; about 500 mg/mL solution, 0° C. for two days): did not freeze or precipitate out
- precipitation on further cooling ([2]; about 500 mg/mL solution, cooled to −4° C.): precipitation observed
